# From patent US8609654B1, “Compounds for enzyme inhibition” (Onyx Therapeutics, Inc., priority 2006, dated 2013)
# Key:
# [1] = tested on: chymotryptic-like activity of isolated 20S constitutive proteasome vs immunoproteasome; assay: Enzyme kinetic assay with isolated 20S proteasome preps, EC50 ratio of CT-L activity (20S ratio); assay type: biochemical; settings: constitutive proteasome to immunoproteasome, >1 = prefers immunoproteasome
# Source text: Enzyme kinetic assays such as those disclosed in U.S. application Ser. No. 09/569,748, Example 2 and Stein et al., Biochem. (1996), 35, 3899-3908 use isolated 20S proteasome preps with greater than 90% constitutive proteasome subunits or immunoproteasome subunits. The inhibitory preference of the molecule is then based on the EC50 ratio of the chymotryptic-like activity of the constitutive proteasome to that of the immunoproteasome (20S ratio).
# [2] = target: T1, 26S proteasome CT-L activity in lysate of HT29 (constitutive) vs Sultan/Thp1 (immunoproteasome) cells (Homo sapiens, UniProt P28062+P28074); assay: CT-L EC50 with 26S proteasome in cell lysate (Lysate ratio); assay type: biochemical; settings: HT29 lysate to Sultan/Thp1 lysate, >1 = prefers immunoproteasome
# T1 construct: using 26S proteasome in the context of a cell lysate; endogenous in cells; host or cells: HT29 lysate (constitutive); Sultan or THP1 lysate (immunoproteasome)
# T1 sequence (P28074 60-263): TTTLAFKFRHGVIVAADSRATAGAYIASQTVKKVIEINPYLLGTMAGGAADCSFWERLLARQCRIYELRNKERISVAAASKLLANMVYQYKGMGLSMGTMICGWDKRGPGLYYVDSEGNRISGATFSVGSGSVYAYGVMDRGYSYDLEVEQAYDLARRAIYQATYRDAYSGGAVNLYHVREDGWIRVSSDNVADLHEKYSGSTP
# T1 sequence (P28062 73-276): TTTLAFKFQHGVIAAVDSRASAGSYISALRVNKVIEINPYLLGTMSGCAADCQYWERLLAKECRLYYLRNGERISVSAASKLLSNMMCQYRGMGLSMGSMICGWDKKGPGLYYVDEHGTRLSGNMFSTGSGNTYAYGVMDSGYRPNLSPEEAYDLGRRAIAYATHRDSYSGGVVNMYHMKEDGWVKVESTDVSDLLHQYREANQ
# Method: Alternatively, the CT-L EC50 of a compound can be determined using 26S proteasome in the context of a cell lysate. Compound is added to lysate generated from cells that either predominantly express constitutive proteasome (e.g., HT29) or immunoproteasome (e.g., THP1). Again, the inhibitory preference is then based on the EC50 ratio (Lysate ratio).
# [3] = target: T2, 20S proteasome subunit β5 vs immunoproteasome subunit LMP7 in RPMI-8226 cells (Homo sapiens, UniProt P28062+P28074); assay: ELISA-based active site assay in RPMI-8226 cells (ELISA ratio); assay type: cell-based; settings: for Elisa ratio (beta5:LMP7): EC50 ratio with β5 antibody to LMP7 antibody, RPMI-8226 cells, >1 = prefers immunoproteasome
# T2 construct: Cells expressing approximately equivalent amounts of immuno- and constitutive proteasome (e.g., RPMI-8226) are treated with test compound; endogenous in cells; host or cells: RPMI-8226 multiple myeloma cells
# T2 sequence (P28074 60-263): T1 sequence (P28074 60-263)
# T2 sequence (P28062 73-276): T1 sequence (P28062 73-276)
# Method: Lastly, a more cell-based approach can be utilized. Cells expressing approximately equivalent amounts of immuno- and constitutive proteasome (e.g., RPMI-8226) are treated with test compound, followed by the method for determining the activity of a proteasome inhibitor as described in application Ser. No. 11/254,541. The ratio of the EC50 generated in the ELISA-based assay using β5 antibody and LMP7 antibodies (ELISA ratio) provides the basis for determining the inhibitory preference of the test compound. […] In all three assays, a ratio of less than one denotes the molecule inhibits the CT-L activity of the constitutive proteasome better than that of the immunoproteasome. Ratios greater than one signifies the molecule inhibits chymotrypsin-like activity of the immunoproteasome better than that of the constitutive proteasome.
# A suitable ELISA assay may be found in U.S. patent application Ser. No. 11/254,541, incorporated herein in its entirety. Briefly, RPMI-8226 cells were treated with 0.1 nM to 1 μM of proteasome Inhibitor B. The samples were then washed with phosphate-buffered saline (PBS) and lysed in hypotonic buffer (20 mM Tris pH 8, 5 mM EDTA) (Tris-HCl and EDTA are available from Teknova, Inc., Hollister, Calif.). Cellular debris was removed by centrifugation at 14,000 rpm in a microfuge (4° C.) for 2 min. The supernatant was transferred to a fresh tube, snap frozen in liquid nitrogen and stored at −80° C. After thawing on ice, the samples (30 μl for assays run in triplicate) were treated with 500 nM of Inhibitor A for 1 hr at room temperature. Following treatment with Inhibitor A, the lysate was denatured by addition of seven volumes of 1% SDS (210 μl) (available from Bio-Rad, Hercules, Calif.) and heating at 99° C. with vigorous shaking for 5 min. The sample was allowed to cool and two volumes (60 μl) of 10% Triton X-100 (available from Bio-Rad, Hercules, Calif.) was added.
# Streptavidin sepharose beads (6.5 μl/well) (available from Amersham Biosciences, Piscataway, N.J.), were washed three times with 1 ml PBS (available from Mediatech, Inc., Herndon, Va.) in a microcentrifuge tube. The beads were resuspended in ELISA wash/block buffer (PBS+0.1% Tween 20+1% bovine serum albumin; 20 μl/well) and transferred to the wells of a 96 well filter plate (BSA is available from Sigma, St. Louis, Mo.; Tween is available from Calbiochem, San Diego, Calif.). Denatured whole blood or PBMC lysates that were treated with Inhibitor 3 were added to the filter plate wells containing the streptavidin sepharose beads (each sample assayed in triplicate) and incubated for 1 hr at room temperature with shaking (MultiScreen-DV Opaque Plates with low protein binding durapore membrane; available from Millipore, Billerica, Mass.). The unbound material was removed by gentle filtration and the beads were washed six times with ELISA wash/block buffer (200 μl each).
# Primary antibody to human 20S proteasome subunit (35 (rabbit polyclonal antibody; available from Biomol, Plymouth Meeting, Pa.) or human 20S immunoproteasome subunit LMP7 (rabbit polyclonal antibody; available from Affinity BioReagents, Golden, Colo.) was diluted 1:1000 in ELISA wash/block buffer, added to the beads (100 μl/well), and incubated for 1 hr at room temperature on an orbital shaker. The beads were washed six times with ELISA wash/block buffer with gentle filtration. Secondary antibody treatment (1:5000) and washing are as described for primary antibody (goat anti-rabbit antibody-HRP conjugate; available from Biosource, Camarillo, Calif.). The beads were then resuspended in 100 μl chemiluminescent detection reagent (Super Signal Pico Chemiluminescent Substrate™; available from Pierce, Rockford, Ill.) and luminescence was read on a Tecan plate reader. […]
Compound,20 S ratio (const:immuno) [1],Lysate ratio (HT29:Sultan/Thp1) [2],Elisa ratio (beta5:LMP7) [3],ELISA ratio (EC50 β5 antibody : LMP7 antibody) ([3]; RPMI-8226 cells treated with 0.1 nM to 1 μM)
CC(C)C[C@H](NC(=O)[C@H](Cc1ccccc1)NC(=O)C(C)NC(=O)OCc1ccccc1)C(=O)C1(C)CO1 (some centres unmarked),<0.5,<0.5,<1.0,
CC(C)C[C@H](NC(=O)OCc1ccccc1)C(=O)N[C@H](CC(C)C)C(=O)N[C@@H](Cc1ccccc1)C(=O)C1(C)CO1 (some centres unmarked),<0.5,<0.5,<0.5,
CC(C)CC(NC(=O)OCc1ccccc1)C(=O)N[C@@H](CC(C)C)C(=O)N[C@@H](Cc1ccccc1)C(=O)C1(C)CO1 (some centres unmarked),<0.5,<1.0,<0.5,
COc1ccc(C[C@H](NC(=O)C(C)NC(=O)OCc2ccccc2)C(=O)N[C@@H](Cc2ccccc2)C(=O)C2(C)CO2)cc1 (some centres unmarked) [drawing 86],>2.0,>2.0,>5.0,
C[C@@H](NC(=O)OCc1ccccc1)C(=O)N[C@@H](Cc1c[nH]c2ccccc12)C(=O)N[C@@H](Cc1ccccc1)C(=O)C1(C)CO1 (some centres unmarked),>5.0,>5.0,>5.0,
Cc1ccc(CCC(=O)N[C@@H](CC(C)C)C(=O)N[C@@H](Cc2ccccc2)C(=O)N[C@@H](CC(C)C)C(=O)C2(C)CO2)cc1 (some centres unmarked),,<0.5,,
C[C@H](NC(=O)OCc1ccccc1)C(=O)N[C@@H](Cc1c[nH]c2ccccc12)C(=O)N[C@H](C(=O)C1(C)CO1)c1ccccc1 (some centres unmarked),>2.0,>5.0,>3.0,
CC(NC(=O)OCc1ccccc1)C(=O)N[C@@H](Cc1ccc(C(F)(F)F)cc1)C(=O)N[C@@H](Cc1ccccc1)C(=O)C1(C)CO1 (some centres unmarked),>5.0,>2.0,>1.0,
CC[C@@H](NC(=O)OCc1ccccc1)C(=O)N[C@@H](Cc1ccccc1)C(=O)N[C@@H](Cc1ccccc1)C(=O)C1(C)CO1 (some centres unmarked),>5.0,>5.0,>3.0,
C[C@H](NC(=O)OCc1ccccc1)C(=O)N[C@@H](Cc1c[nH]c2ccccc12)C(=O)N[C@@H](Cc1ccccc1)C(=O)C1(C)CO1 (some centres unmarked),>1.0,>2.0,>5.0,
C[C@H](NC(=O)OCc1ccccc1)C(=O)N[C@@H](Cc1cn(C)c2ccccc12)C(=O)N[C@@H](Cc1ccccc1)C(=O)C1(C)CO1 (some centres unmarked),>1.0,>1.0,>3.0,
CC(C)C[C@H](NC(=O)[C@H](Cc1c[nH]c2ccccc12)NC(=O)[C@H](C)NC(=O)OCc1ccccc1)C(=O)C1(C)CO1 (some centres unmarked),<0.5,,,
CC(C)C[C@H](NC(=O)CN1CCOCC1)C(=O)N[C@@H](Cc1ccccc1)C(=O)N[C@@H](CC(C)C)C(=O)C1(C)CO1 (some centres unmarked),<0.5,<0.5,<0.5,
CC1(C(=O)[C@H](Cc2ccccc2)NC(=O)[C@H](Cc2c[nH]c3ccccc23)NC(=O)[C@@H](NC(=O)OCc2ccccc2)c2ccccc2)CO1 (some centres unmarked),>3.0,>3.0,>1.0,
CC1(C(=O)[C@H](Cc2ccccc2)NC(=O)[C@H](Cc2c[nH]c3ccccc23)NC(=O)C(CC(=O)O)NC(=O)OCc2ccccc2)CO1 (some centres unmarked),>3.0,>3.0,>2.0,
CC(C)C[C@@H](NC(=O)OCc1ccccc1)C(=O)N[C@@H](Cc1c[nH]c2ccccc12)C(=O)N[C@@H](Cc1ccccc1)C(=O)C1(C)CO1 (some centres unmarked),>5.0,>5.0,>5.0,
CC[C@H](C)C(NC(=O)OCc1ccccc1)C(=O)N[C@@H](Cc1c[nH]c2ccccc12)C(=O)N[C@@H](Cc1ccccc1)C(=O)C1(C)CO1 (some centres unmarked),>5.0,>3.0,>5.0,
C[C@H](NC(=O)OCc1ccccc1)C(=O)N[C@@H](Cc1c[nH]c2ccccc12)C(=O)N[C@@H](C)C(=O)C1(C)CO1 (some centres unmarked),<0.5,,,
CC(C)CC(NC(=O)Nc1ccccc1)C(=O)N[C@@H](Cc1ccccc1)C(=O)N[C@@H](CC(C)C)C(=O)C1(C)CO1 (some centres unmarked),,<0.5,,
COc1ccc(NC(=S)N[C@@H](CC(C)C)C(=O)N[C@@H](Cc2ccccc2)C(=O)N[C@@H](CC(C)C)C(=O)C2(C)CO2)cc1 (some centres unmarked),,<0.5,,
CC[C@@H](C)C(NC(=O)[C@H](Cc1ccccc1)NC(=O)C(C)NC(=O)OCc1ccccc1)C(=O)C1(C)CO1 (some centres unmarked),,,<1.0,
COc1ccc(NC(=O)NC(CC(C)C)C(=O)N[C@@H](Cc2ccccc2)C(=O)N[C@@H](CC(C)C)C(=O)C2(C)CO2)cc1 (some centres unmarked),,<0.5,,
CC[C@@H](NC(=O)OCc1ccccc1)C(=O)N[C@@H](Cc1c[nH]c2ccccc12)C(=O)N[C@@H](Cc1ccccc1)C(=O)C1(C)CO1 (some centres unmarked) [inhibitor (B)],,,,greater than 20
